# Earlier results as cited in patent publication US10898452B2, “Stable formulation for parenteral administration of Tapentadol” (Gruenenthal GmbH, priority 2016, dated 2021).
# Conditions: more pronounced at higher pH values
compound,measurement,value
"CC[C@@H](c1cccc(O)c1)[C@@H](C)CN(C)C [Tapentadol, (1R,2R)-3-(3-dimethylamino-1-ethyl-2-methyl-propyl)-phenol]",antimicrobial properties,exhibits antimicrobial properties
